Source: US20250361240A1, “PYRANOPYRIDINE COMPOUND, PROCESS FOR PREPARING THE SAME, PHARMACEUTICAL COMPOSITION AND USE THEREOF” (Zhejiang Yangli Pharmaceutical Technology Co., Ltd., priority 2024, published 2025)

Assays:
human CYP11B1 = human CYP11B1 (Homo sapiens (Human), UniProt P15538); assay: Inhibitory activity against hCYP11B1 in G-402 CYP11B1 high expression stable transformants (cortisol HTRF); type: cell-based; settings: G-402 CYP11B1 cells, 0.2 μM 11-deoxycortisol, 16 hours; read-out: hCYP11B1 Abs IC50
Description: (§1) 1. Experimental System: G-402 CYP11B2 or CYP11B1 High Expression Stable Transformants
(§2) The above-mentioned high-expression stable transformants were constructed based on human […] cell line G-402. The artificial lentiviruses were introduced into human CYP11B2 (NM_000498.3) and CYP11B1 (NM_000497.4), respectively.
(§3) Maintenance medium: McCoy's 5A (modified, #16600082, GIBCO)+10% FBS (GIBCO)+1 μg/mL puromycin (A1113803, GIBCO).
(§4) Resuscitation and seeding medium: McCoy's 5A (modified, #16600082, GIBCO)+10% FBS (GIBCO).
(§5) Reaction medium: DMEM/F12 (#11320033, GIBCO)+2.5% activated charcoal filtered FBS (S11695, R & D).
(§6) Seeding: Cells were cultured to a suitable state after resuscitation with maintenance medium, and 96-well flat plates were seeded with seeding medium according to 1×10^4/100 μL/well (unified cell volume).
(§7) Changing solution: The supernatant was aspirated and discarded after seeding overnight (>12 hours) and adherence. 100-150 μL/well serum-free medium was added, and after being aspirated. After aspiration, 50 μL/well reaction medium was added for later use.
(§8) Formulation: Compound was diluted with reaction medium containing 0.4 μM substrate (final experimental concentration is 0.2 μM):
CYP11B1 substrate: 11-deoxycortisol (11-deoxycortisol, S4775, selleckchem). The final reaction concentration was 0.2 μM.
(§9) Loading: The above compound dilutions were added to the cell plates at 50 μL/well. The background and control wells were set.
(§10) Treating and sampling: The cell plates were incubated in a cell incubator for 16 hours after loading, and then each cell plate was centrifuged at 450 g for 2 min. 75 μL supernatant was transferred to a collection plate and frozen at −80° C. for future use (or direct detection).
(§11) Detection: Homogeneous time-resolved fluorescence kit (Cisbio HTRF kit, Cat.64ALDPEG, Cat.62CRTPEG) was used to determine the concentration of aldosterone or cortisol in the supernatant.
(§12) Analysis: The absolute IC50 (Abs IC50) for each compound was calculated using a four parameter fit.

CYP3A-M = CYP3A-M (Homo sapiens, UniProt P08684); assay: In vitro inhibitory activity against common CYP450 enzymes: CYP3A (midazolam); type: in vitro ADME; settings: microsomes, substrate Midazolam
Description: (§13) A working solution of the test compound was prepared in a solvent of dimethyl sulfoxide (DMSO) (starting at a final concentration of 50 μM, 3-fold dilution of 7 concentration points). The corresponding microsomes (CORNING, Cat No.452117) and the corresponding substrate solution were prepared (components were shown in Table 2). The working solution of the test compound and the corresponding microsomes were mixed with the corresponding substrate solution and the HLM working solution. The mixture was preheated in a 37.0° C. water bath for 10 min. NADPH cofactor (BONTAC, Cat No.BT04) was added. The resultant mixture was incubated for 10 min in a 37.0° C. water bath. The reaction was terminated by adding cold stop solution. [table] [table] The sample was centrifuged at 4000 rpm for 20 min to precipitate protein and the supernatant was transferred to HPLC water and shaken for 10 min.

aldosterone synthesis = assay: Pharmacodynamic test in cynomolgus monkeys with ACTH stimulation: aldosterone in plasma; type: in vivo, cynomolgus monkeys (Macaca fascicularis); settings: 0.5 mg/kg oral
Source text: (§14) Adult cynomolgus monkeys (Macaca fascicularis) with suitable body weight and age were selected. 1 male and 1 female cynomolgus monkeys were used for experiment. The adaptation period was 1 week. On the day of the experiment, monkeys were individually housed in stainless steel mesh cages for testing.
(§15) Oral treatment and ACTH working solution (working solution diluted to the desired concentration in PBS sterile solution by ultrapure water filtration through a 0.22 μm filter using Tetracosactrin (HY-P0060, MCE)) were administered as follows: • T=0, 2 monkeys in each group were orally administered 0.5 mg/kg (compound was suspended in 5% aqueous sodium hydroxymethylcellulose solution as vehicle) in a fixed volume of 2 mL/kg; • T=+1 hour (i.e., 1 hour after administration), 14.5 μg/kg of the aforementioned ACTH working solution was injected intramuscularly.
(§16) Sampling test: Blood samples (collected in EDTA anticoagulant tubes) were collected before oral administration (Pre-dose) and 0.5 h, 1 h, 2 h, 4 h, 6 h and 12 h after administration for cortisol concentration measurement in plasma. The blood was centrifuged at 10000 rpm for 15 minutes at 4° C., followed by separation of the plasma and uniform storage at −80° C. for further analysis using an Roche biochemical analyzer to detect aldosterone and cortisol in plasma, and a portion of the plasma (0.5 h, 1 h, 2 h, 4 h, 6 h, and 12 h after administration, and an additional blood collection after 24 h) was taken simultaneously to determine the pharmacokinetic parameters by LC/MS.
(§17) The above experiment was repeated except that: T=0, two monkeys in each group were orally administered at a dose of 0.05 mg/kg (compound was suspended in 5% aqueous sodium hydroxymethylcellulose as vehicle) in a fixed volume of 2 mL/kg.

[1] = Pharmacokinetic test in cynomolgus monkeys (LC/MS); type: in vivo, cynomolgus monkeys (Macaca fascicularis); settings: both sexes, cynomolgus monkey, plasma, 0.5 mg/kg, 0.5mpk oral
Source text: as §14, §15, §16, §17

cortisol levels = assay: Pharmacodynamic test in cynomolgus monkeys with ACTH stimulation: cortisol in plasma; type: in vivo, cynomolgus monkeys (Macaca fascicularis); settings: 0.5 mg/kg oral
Source text: as §14, §15, §16, §17

CYP2D6 = CYP2D6 (Homo sapiens (Human), UniProt P10635); assay: In vitro inhibitory activity against common CYP450 enzymes: CYP2D6; type: in vitro ADME; settings: microsomes, substrate Dextromethorphan
Description: as §13

CYP2C9 = CYP2C9 (Homo sapiens (Human), UniProt P11712); assay: In vitro inhibitory activity against common CYP450 enzymes: CYP2C9; type: in vitro ADME; settings: microsomes, substrate Diclofenac
Description: as §13

CYP2C19 = CYP2C19 (Homo sapiens (Human), UniProt P33261); assay: In vitro inhibitory activity against common CYP450 enzymes: CYP2C19; type: in vitro ADME; settings: microsomes, substrate (S)-(+)-Mephenytoin
Description: as §13

human CYP11B2 = human CYP11B2 (Homo sapiens (Human), UniProt P19099); assay: Inhibitory activity against hCYP11B2 in G-402 CYP11B2 high expression stable transformants (aldosterone HTRF); type: cell-based
Description: as §1, §2, §3, §4, §5, §6, §7, §8
CYP11B2 substrate: 11-deoxycorticosterone (11-deoxycorticosterone, S4243, selleckchem). The final reaction concentration was 0.2 μM
as §9, §10, §11, §12

CYP1A2 = CYP1A2 (Homo sapiens (Human), UniProt P05177); assay: In vitro inhibitory activity against common CYP450 enzymes: CYP1A2; type: in vitro ADME; settings: human, microsomes, 10 min
Description: as §13

Chain of human CYP11B2 (P19099 25-503): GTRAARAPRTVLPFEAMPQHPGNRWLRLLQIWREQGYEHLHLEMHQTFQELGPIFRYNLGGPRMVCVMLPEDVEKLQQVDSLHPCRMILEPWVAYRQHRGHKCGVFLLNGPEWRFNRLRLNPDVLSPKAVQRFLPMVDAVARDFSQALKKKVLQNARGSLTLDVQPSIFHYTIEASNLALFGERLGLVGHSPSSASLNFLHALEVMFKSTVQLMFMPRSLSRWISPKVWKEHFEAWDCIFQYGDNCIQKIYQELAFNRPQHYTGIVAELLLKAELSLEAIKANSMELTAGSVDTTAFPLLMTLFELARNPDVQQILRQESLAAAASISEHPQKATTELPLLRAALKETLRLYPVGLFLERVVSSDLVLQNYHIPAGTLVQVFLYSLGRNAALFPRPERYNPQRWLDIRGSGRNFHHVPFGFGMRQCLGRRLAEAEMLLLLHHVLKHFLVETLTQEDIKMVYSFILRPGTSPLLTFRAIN
Chain of CYP2C9 (P11712 whole entry): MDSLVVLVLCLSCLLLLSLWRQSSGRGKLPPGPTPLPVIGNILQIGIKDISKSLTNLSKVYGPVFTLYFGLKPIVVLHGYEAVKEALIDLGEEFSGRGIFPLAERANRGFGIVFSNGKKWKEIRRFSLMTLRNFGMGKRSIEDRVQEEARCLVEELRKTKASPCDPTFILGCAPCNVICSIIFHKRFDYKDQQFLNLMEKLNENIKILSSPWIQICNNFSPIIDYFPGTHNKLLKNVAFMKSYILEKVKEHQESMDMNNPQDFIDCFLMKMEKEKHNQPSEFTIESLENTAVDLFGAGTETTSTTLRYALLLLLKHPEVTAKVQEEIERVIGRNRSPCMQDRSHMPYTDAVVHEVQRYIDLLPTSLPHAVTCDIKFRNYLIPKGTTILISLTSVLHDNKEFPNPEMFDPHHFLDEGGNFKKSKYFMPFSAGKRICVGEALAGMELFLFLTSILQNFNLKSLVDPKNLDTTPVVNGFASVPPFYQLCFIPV
Chain of CYP2D6 (P10635 whole entry): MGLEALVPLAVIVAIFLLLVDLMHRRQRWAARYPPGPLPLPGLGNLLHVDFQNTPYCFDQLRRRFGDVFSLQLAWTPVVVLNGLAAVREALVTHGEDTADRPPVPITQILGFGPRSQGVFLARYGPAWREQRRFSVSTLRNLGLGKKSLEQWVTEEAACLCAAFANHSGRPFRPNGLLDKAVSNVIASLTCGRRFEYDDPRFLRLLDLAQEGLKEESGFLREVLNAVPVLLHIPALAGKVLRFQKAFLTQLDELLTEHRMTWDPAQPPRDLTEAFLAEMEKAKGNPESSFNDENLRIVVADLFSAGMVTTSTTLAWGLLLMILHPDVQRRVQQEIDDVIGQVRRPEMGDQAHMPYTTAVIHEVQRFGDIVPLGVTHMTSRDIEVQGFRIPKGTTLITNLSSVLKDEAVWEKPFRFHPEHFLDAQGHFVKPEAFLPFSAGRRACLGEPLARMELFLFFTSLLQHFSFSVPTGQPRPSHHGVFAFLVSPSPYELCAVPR
Chain of CYP1A2 (P05177 whole entry): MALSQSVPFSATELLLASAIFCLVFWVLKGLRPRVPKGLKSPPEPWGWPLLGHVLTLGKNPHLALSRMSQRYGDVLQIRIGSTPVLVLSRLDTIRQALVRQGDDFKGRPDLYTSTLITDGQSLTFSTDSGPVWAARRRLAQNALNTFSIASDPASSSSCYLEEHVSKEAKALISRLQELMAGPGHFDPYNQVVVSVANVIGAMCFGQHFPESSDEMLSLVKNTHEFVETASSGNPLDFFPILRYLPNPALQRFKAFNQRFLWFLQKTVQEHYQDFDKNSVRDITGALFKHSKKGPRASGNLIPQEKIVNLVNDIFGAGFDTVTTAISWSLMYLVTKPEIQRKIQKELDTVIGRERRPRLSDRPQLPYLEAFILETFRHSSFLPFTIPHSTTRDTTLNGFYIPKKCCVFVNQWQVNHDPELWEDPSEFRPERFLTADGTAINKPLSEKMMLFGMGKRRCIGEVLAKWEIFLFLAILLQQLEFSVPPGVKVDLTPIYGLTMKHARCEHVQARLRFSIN
Chain of CYP2C19 (P33261 whole entry): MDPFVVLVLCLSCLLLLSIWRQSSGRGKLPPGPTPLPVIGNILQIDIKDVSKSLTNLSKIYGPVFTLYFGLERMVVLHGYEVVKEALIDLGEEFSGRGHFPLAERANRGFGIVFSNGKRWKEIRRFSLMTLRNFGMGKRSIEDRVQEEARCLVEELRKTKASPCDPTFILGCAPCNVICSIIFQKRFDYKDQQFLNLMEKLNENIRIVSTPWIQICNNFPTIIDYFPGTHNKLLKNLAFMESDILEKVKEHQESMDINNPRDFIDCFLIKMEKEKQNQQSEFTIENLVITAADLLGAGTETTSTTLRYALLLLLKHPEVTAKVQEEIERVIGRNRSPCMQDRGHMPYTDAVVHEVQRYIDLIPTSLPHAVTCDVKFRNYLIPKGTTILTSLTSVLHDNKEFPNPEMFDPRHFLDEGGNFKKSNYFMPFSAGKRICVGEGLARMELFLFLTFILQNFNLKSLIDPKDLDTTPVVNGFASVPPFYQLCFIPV
Chain of CYP3A-M (P08684 2-503 limits assumed): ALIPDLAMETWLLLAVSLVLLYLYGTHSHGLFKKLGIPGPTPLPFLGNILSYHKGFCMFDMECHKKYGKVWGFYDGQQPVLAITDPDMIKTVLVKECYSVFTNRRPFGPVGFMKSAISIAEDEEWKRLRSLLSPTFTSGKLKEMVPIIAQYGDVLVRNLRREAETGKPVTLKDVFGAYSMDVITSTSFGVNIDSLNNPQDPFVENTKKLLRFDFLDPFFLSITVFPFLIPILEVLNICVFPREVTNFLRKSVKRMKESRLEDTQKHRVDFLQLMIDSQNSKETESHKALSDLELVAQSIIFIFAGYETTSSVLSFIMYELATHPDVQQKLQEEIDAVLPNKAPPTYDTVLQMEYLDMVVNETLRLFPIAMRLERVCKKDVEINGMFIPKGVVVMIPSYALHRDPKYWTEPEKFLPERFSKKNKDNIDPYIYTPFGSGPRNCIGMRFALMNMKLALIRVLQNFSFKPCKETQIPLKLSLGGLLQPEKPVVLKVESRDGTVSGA
Chain of human CYP11B1 (P15538 25-503): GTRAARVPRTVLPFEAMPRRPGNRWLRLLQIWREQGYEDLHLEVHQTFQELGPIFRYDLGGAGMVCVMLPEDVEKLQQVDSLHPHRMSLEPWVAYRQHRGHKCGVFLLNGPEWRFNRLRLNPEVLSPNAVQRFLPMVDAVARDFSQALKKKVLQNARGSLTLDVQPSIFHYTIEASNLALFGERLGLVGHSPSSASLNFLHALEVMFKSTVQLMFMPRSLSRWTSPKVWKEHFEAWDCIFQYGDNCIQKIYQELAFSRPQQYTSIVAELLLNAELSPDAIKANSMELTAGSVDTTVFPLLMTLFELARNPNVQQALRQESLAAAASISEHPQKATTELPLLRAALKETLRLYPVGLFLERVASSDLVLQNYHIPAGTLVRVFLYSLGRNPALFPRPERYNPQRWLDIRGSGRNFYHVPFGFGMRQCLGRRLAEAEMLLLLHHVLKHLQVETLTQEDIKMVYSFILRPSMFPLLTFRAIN

CCC(=O)N[C@@H]1CCOc2c(-c3ccc4c(c3)CCC(=O)N4C)cncc21 [Example 1, (R)-N-(8-(1-methyl-2-oxo-1,2,3,4-tetrahydroquinolin-6-yl)-3,4-dihydro-2H-pyran[3,2-c]pyridin-4-yl)propanamide]
IC50 (human CYP11B1): 4.21 µM
IC50 (CYP3A-M): > 50 µM
Aldosterone Concentration in Plasma (aldosterone synthesis; 0.5 h): 859.25 pg/mL
Aldosterone Concentration in Plasma (aldosterone synthesis; 1 h (ACTH at +1 hour)): 358.37 pg/mL
Aldosterone Concentration in Plasma (aldosterone synthesis; 2 h): 122.85 pg/mL
Aldosterone Concentration in Plasma (aldosterone synthesis; 4 h): 90.51 pg/mL
Aldosterone Concentration in Plasma (aldosterone synthesis; 6 h): 90.39 pg/mL
Aldosterone Concentration in Plasma (aldosterone synthesis; 12 h): 89.42 pg/mL
Aldosterone Concentration in Plasma (aldosterone synthesis; Pre-dose): 222.84 pg/mL
Cmax [1]: 152 ng/mL
Tmax [1]: 2 h
half-life [1]: 9.09 h
AUC(0-t) ([1]; read-out: AUC0-24 h): 1960 ng·h/mL
Cortisol Concentration in Plasma (cortisol levels; 0.5 h): 1000.0 pg/mL
Cortisol Concentration in Plasma (cortisol levels; 1 h (ACTH at +1 hour)): 876.5 pg/mL
Cortisol Concentration in Plasma (cortisol levels; 2 h): 1180.0 pg/mL
Cortisol Concentration in Plasma (cortisol levels; 4 h): 602.7 pg/mL
Cortisol Concentration in Plasma (cortisol levels; 6 h): 476.3 pg/mL
Cortisol Concentration in Plasma (cortisol levels; 12 h): 377.3 pg/mL
Cortisol Concentration in Plasma (cortisol levels; Pre-dose): 699.3 pg/mL
IC50 (CYP2D6): > 50 µM
IC50 (CYP2C9): > 50 µM
IC50 (CYP2C19): > 50 µM
IC50 (human CYP11B2; G-402 CYP11B2 cells, 0.2 μM 11-deoxycorticosterone, 16 hours, read-out: hCYP11B2 (AS) Abs IC50): 0.0264 µM
hCYP11B ½ Selectivity Fold (human CYP11B2; hCYP11B1 IC50 relative to hCYP11B2 IC50): 159.64 Fold
IC50 (CYP1A2): > 50 µM
